From patent US6319952A, “Compositions and methods for reversibly increasing permeability of biomembranes” (D-Pharm Ltd., priority 1997, dated 2001)

Tested on: bovine brain capillary endothelial cells in co-culture with astrocytes
Assay: Paracellular permeability (inulin and sucrose clearance), in vitro coculture model of the BBB
Assay type: cell-based
Text: The alterations in barrier function on bovine brain capillary endothelial cells in co-culture were investigated. To provide an "in vitro" system for studying brain capillary functions, a process of coculture was used that closely mimics the "in vivo" situation by culturing brain capillary endothelial cells on one side of a filter and astrocytes on the other (Dehouck, et al. (1992) J. Neurochemistry 58:1790-1797). Endothelial cells form a confluent monolayer in 12 days.
Endothelial cells are cultured in the upper compartment on the filter and astrocytes in the lower compartment on the plastic of the Petri dish.
Under these conditions, endothelial cells retain all the endothelial markers (factor VIII--related antigen, nonthrombogenic surface, production of prostacyclin, angiotensin converting enzyme activity) and the characteristics of the blood-brain barrier (presence of tight junctions, paucity of pinocytotic vesicles, monoamine oxidase activity, γ-glutamyltranspeptidase activity).
Two different time points were tested, namely 1 hr and 24 hrs of incubation with DP-BFA, and five different concentrations per time point: 0.04; 0.08; 0.16; 0.24; 0.32 mg/ml corresponding to 0.125; 0.25; 0.5; 0.75; 1×10^-3 M.
DP-BFA is stored in a hermetically sealed dark vial filled with Argon at 5° C. for up to 3 months. The drug quantity was taken out the vial cap with a Teflon spatula. The compound was dissolved in sodium carbonate-sodium bicarbonate buffered saline solution adjusted to pH 8.8-9 at 37° C. A stock solution (12.8 mg/ml) was prepared and kept at 37° C. for 15 minutes. The solution was protected from light by covering it with aluminium foil. […] The desired concentration of DP-BFA was obtained by diluting the stock solution with the buffer. The solutions were filtered through a […] filter. The DP-BFA solutions were kept at 37° C. in vials protected from light, for no more than 6 hours.
Stock solution of DP-BFA was added directly to the coculture medium (upper compartment) in order to obtain a dilution of 1:40.
Permeability studies were carried out on the monolayer of endothelial cells, using two paracellular tracers: inulin-^3 H and sucrose-^14C.
To obtain a concentration-dependent transport parameter, the clearance principle was used. For each time, the increment in cleared volume between successive sampling events was calculated by dividing the amount of transported solute by the donor chamber concentration. The total volume cleared at each point was calculated by summing the incremental cleared volumes up to the given time point: [formula]
where [C]L is the initial luminal tracer concentration, [C]A the abluminal tracer concentration, and VA the volume of the abluminal chamber. During the 45-mim experiment, the clearance volume increased linearly with time. The average volume cleared was plotted versus time, and the slope was estimated by linear regression analysis to give the mean and the SE to the estimate. The slope of the clearance curves for the coculture was denoted PSt, where PS is the permeability x surface area product (in microliters per minute). The slope of the clearance curve for the control filter was denoted PSf.
The PS value for the endothelial monolayer (PSe) was calculated from [formula]
The PSe values were divided by the surface area of the Millicell-PC (4.2 cm^2) to generate the endothelial permeability coefficient (Pe, in centimeters per minute).
In that case, the results are presented as clearance (μl) in function of time (min) and clearance at 45 minutes for each condition.

[1] = 0.08 mg/ml, 24 hours incubation

## CCCCCCCCCCCCCCC(CCC)C(=O)O (stereo not drawn) [M 3/14, 2-propylhexadecanoic acid]
[1]
  increase in permeability of the monolayer for inulin (clearance at 45 minutes): 179%
  increase in permeability of the monolayer for sucrose (clearance at 45 minutes): 199%
0.08 mg/ml, 24 hrs
  paracellular breakdown (opening of the tight junctions): paracellular breakdown (opening of the tight junctions)
0.16 mg/ml, 1 hour incubation
  increase in permeability of the monolayer for inulin (clearance at 45 minutes): 636%
  increase in permeability of the monolayer for sucrose (clearance at 45 minutes): 679%
0.16 mg/ml, 1 hr
  paracellular breakdown (opening of the tight junctions): paracellular breakdown (opening of the tight junctions)
